According to PubChem BioAssay AID2060496 (Molecular Pharmacology Branch, DTP, NCI, 2025):

Test system: 276233-004-R-J1-PDC complex spheroid viability
Experiment: Anticancer human tumor 276233-004-R-J1-PDC patient-derived colon adenocarcinoma cell line growth inhibition [GQUAD]
Settings: for IC50: curve of first compound; for viability, T/C: stronger effect = lower value
From the text: DNA G-quadruplex Stabilizer Agents in Combinations in Complex Spheroids
A high-throughput screen of multi-cell type tumor spheroids was designed to identify active combinations of DNA G-quadruplex stabilizer agents and targeted small molecules. Complex spheroids include a stromal component modeled by human endothelial cells (HUVEC) and fibroblasts modeled by human mesenchymal stem cells (MSCs). The concentration ranges selected for each drug and investigational agent were based upon clinically achievable concentrations if the clinical Cmax of the agent was known.
Compounds. The drugs and investigational agents: pidnarulex (CX-5461; NSC782164), APTO-253 (NSC789042), BRACO-19 (NSC847499), peposertib (NSC802822), ceralasertib (NSC780249), elimusertib (NSC800525), camonsertib (NSC841442), AZD-1390 (NSC803789), olaparib (NSC753686), talazoparib (NSC767125), ART-558 (NSC835418), sotorasib (NSC818433), MRTX-1133 (NSC836407), SN-38 (NSC673596), topotecan (NSC609699), etoposide (NSC141540), doxorubicin (NSC123127), gemcitabine (NSC613327), 5-fluorouracil (NSC19893), paclitaxel (NSC125973), vemurafenib (NSC761431), panobinostat (NSC761190), R-306465 (JNJ-16241199; NSC773264), adavosertib (NSC754352), TP-3654 (NSC805149), carboplatin (NSC241240), KSQ-4279 (NSC840948), and staurosporine (NSC755774) were obtained from the National Cancer Institute (NCI) Developmental Therapeutics Program Chemical Repository (34). The FDA-approved anticancer drug set is available from the NCI Developmental Therapeutics Program. […] The stock solutions were prepared in dimethyl sulfoxide (DMSO, Sigma-Aldrich, St. Louis, MO, cat. D2650) at 800-fold the tested concentration and stored at -70 degrees C prior to their use. All drugs and investigational agents were tested over a range starting from a high concentration at or near the clinical Cmax and decreasing in half-log increments. If the clinical Cmax for an agent had not been determined, the highest concentration tested was 10 microM.
2.3 Cell Culture. All cells were maintained in an incubator at 37 degrees C and 5% CO2 with 95% humidity. The PDC lines were cultured according to standard operating procedures established by the NCI PDMR. All PDCs were thawed and cultured in Matrigel-coated flasks prepared with a working solution of 1X Ham's F-12 nutrient mix, without supplementation (Invitrogen, cat. 11765054), 100 U/mL penicillin-streptomycin (Invitrogen, cat. 15140122), and 2.5% Matrigel (Corning Inc., cat. 354248) for the first three passages. The 857933-349-R-J2-PDC line was cultured in 6C/Colon 1B media, which includes advanced DMEM/F-12 (Thermo Fisher Scientific, cat. 12634028), 10 mM HEPES (Thermo Fisher Scientific, cat. 15630080), 1X GlutaMAX supplement (Thermo Fisher Scientific, cat. 35050061), 0.1 mg/mL primocin (InvivoGen, cat. ant-pm-2), 10% defined fetal bovine serum, heat inactivated (HyClone Laboratories Inc., cat. SH30070.03HI), 50% L-WRN conditioned media (ATCC, cat. CRL-3276), 1.25 mM N-Acetyl-L-cysteine (Sigma-Aldrich, cat. A9165), 10 mM nicotinamide (Sigma-Aldrich, cat. N0636), 1X B-27 supplement (Thermo Fisher Scientific, cat. 17504044), 1X N-2 supplement (Thermo Fisher Scientific, cat. 17502048), 10 microM Y-27632 dihydrochloride (Tocris Bioscience, cat. 1254), and 50 ng/mL human EGF recombinant protein (Thermo Fisher Scientific, cat. PHG0311). The 485176-168-R4-J1-PDC line was cultured in Panc media, which includes all 6C/Colon 1B media components plus 100 ng/mL human FGF-10 (Thermo Fisher Scientific, cat. 100-26), 500 nM SB-431542 (Selleckchem, cat. S1067), and gastrin (Tocris, cat. 3006).
[…]

[1] = second compound 0.0316 µM, first compound 0.0316 µM
[2] = second compound 0.0316 µM, first compound 0.1 µM
[3] = second compound 0.0316 µM, first compound 0.316 µM
[4] = second compound 0.0316 µM, first compound 1 µM
[5] = second compound 0.0316 µM, first compound 3.16 µM
[6] = second compound 0.0316 µM, first compound 10 µM
[7] = second compound 0.1 µM, first compound 0.0316 µM
[8] = second compound 0.1 µM, first compound 0.1 µM
[9] = second compound 0.1 µM, first compound 0.316 µM
[10] = second compound 0.1 µM, first compound 1 µM
[11] = second compound 0.1 µM, first compound 3.16 µM
[12] = second compound 0.1 µM, first compound 10 µM
[13] = second compound 0.316 µM, first compound 0.0316 µM
[14] = second compound 0.316 µM, first compound 0.1 µM
[15] = second compound 0.316 µM, first compound 0.316 µM
[16] = second compound 0.316 µM, first compound 1 µM
[17] = second compound 0.316 µM, first compound 3.16 µM
[18] = second compound 0.316 µM, first compound 10 µM
[19] = second compound 1 µM, first compound 0.0316 µM
[20] = second compound 1 µM, first compound 0.1 µM
[21] = second compound 1 µM, first compound 0.316 µM
[22] = second compound 1 µM, first compound 1 µM
[23] = second compound 1 µM, first compound 3.16 µM
[24] = second compound 1 µM, first compound 10 µM
[25] = second compound 3.16 µM, first compound 0.0316 µM
[26] = second compound 3.16 µM, first compound 0.1 µM
[27] = second compound 3.16 µM, first compound 0.316 µM
[28] = second compound 3.16 µM, first compound 1 µM
[29] = second compound 3.16 µM, first compound 3.16 µM
[30] = second compound 3.16 µM, first compound 10 µM
[31] = second compound 10 µM, first compound 0.0316 µM
[32] = second compound 10 µM, first compound 0.1 µM
[33] = second compound 10 µM, first compound 0.316 µM
[34] = second compound 10 µM, first compound 1 µM
[35] = second compound 10 µM, first compound 3.16 µM
[36] = second compound 10 µM, first compound 10 µM
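Further: spheroids exposed to drugs for seven days.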
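Wherever viability, T/C is given: 100% = DMSO vehicle control viability.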

SMILES: O=c1[nH]cc(F)c(=O)[nH]1 + Cc1[nH]c2ccc(F)cc2c1-c1nc2c3cccnc3c3ncccc3c2[nH]1
- IC50 (second compound 0.0316 µM): > 10 µM
- IC50 (second compound 0.1 µM): > 10 µM
- IC50 (second compound 0.316 µM): > 10 µM
- IC50 (second compound 1 µM): > 10 µM
- IC50 (second compound 3.16 µM): > 10 µM
- IC50 (second compound 10 µM): < 0.0316 µM
- viability, T/C [1]: 71.4%
- viability, T/C [2]: 85.6%
- viability, T/C [3]: 92.9%
- viability, T/C [4]: 76.8%
- viability, T/C [5]: 77.5%
- viability, T/C [6]: 100%
- viability, T/C [7]: 79.3%
- viability, T/C [8]: 97.2%
- viability, T/C [9]: 88.9%
- viability, T/C [10]: 82.7%
- viability, T/C [11]: 83%
- viability, T/C [12]: 80%
- viability, T/C [13]: 75.7%
- viability, T/C [14]: 91.2%
- viability, T/C [15]: 80.4%
- viability, T/C [16]: 94%
- viability, T/C [17]: 74.5%
- viability, T/C [18]: 85.3%
- viability, T/C [19]: 57.3%
- viability, T/C [20]: 63%
- viability, T/C [21]: 73.1%
- viability, T/C [22]: 65.6%
- viability, T/C [23]: 70.8%
- viability, T/C [24]: 73.3%
- viability, T/C [25]: 54.6%
- viability, T/C [26]: 49.9%
- viability, T/C [27]: 48.5%
- viability, T/C [28]: 48%
- viability, T/C [29]: 53.8%
- viability, T/C [30]: 51.9%
- viability, T/C [31]: 41.2%
- viability, T/C [32]: 46.7%
- viability, T/C [33]: 43.2%
- viability, T/C [34]: 44.5%
- viability, T/C [35]: 45.3%
- viability, T/C [36]: 42.9%

SMILES: CC(C)n1c(=O)n(C)c2cnc3cc(F)c(-c4ccc(OCCCN5CCCCC5)nc4)cc3c21 + Cc1cnc(CNC(=O)c2c(=O)c3ccc(N4CCCN(C)CC4)nc3n3c2sc2ccccc23)cn1
- IC50 (second compound 0.0316 µM): > 10 µM
- IC50 (second compound 0.1 µM): > 10 µM
- IC50 (second compound 0.316 µM): > 10 µM
- IC50 (second compound 1 µM): > 10 µM
- IC50 (second compound 3.16 µM): > 10 µM
- IC50 (second compound 10 µM): > 10 µM
- viability, T/C [1]: 81.3%
- viability, T/C [2]: 71.9%
- viability, T/C [3]: 82.5%
- viability, T/C [4]: 89.4%
- viability, T/C [5]: 79.3%
- viability, T/C [6]: 79.2%
- viability, T/C [7]: 79%
- viability, T/C [8]: 83.4%
- viability, T/C [9]: 76.8%
- viability, T/C [10]: 78.9%
- viability, T/C [11]: 96.5%
- viability, T/C [12]: 86.4%
- viability, T/C [13]: 85.9%
- viability, T/C [14]: 96.7%
- viability, T/C [15]: 82.1%
- viability, T/C [16]: 78.2%
- viability, T/C [17]: 85.2%
- viability, T/C [18]: 81.9%
- viability, T/C [19]: 69.9%
- viability, T/C [20]: 64.9%
- viability, T/C [21]: 89.3%
- viability, T/C [22]: 81.6%
- viability, T/C [23]: 85%
- viability, T/C [24]: 69.7%
- viability, T/C [25]: 80.4%
- viability, T/C [26]: 78%
- viability, T/C [27]: 79.3%
- viability, T/C [28]: 71.9%
- viability, T/C [29]: 75%
- viability, T/C [30]: 76.7%
- viability, T/C [31]: 74.3%
- viability, T/C [32]: 66.7%
- viability, T/C [33]: 66.8%
- viability, T/C [34]: 69.2%
- viability, T/C [35]: 80.8%
- viability, T/C [36]: 66.3%
